Where a name gives a salt, the structure may show the parent alone.
Experiments:
[1] = tested on: MCF-7/ADR adriamycin resistant line of MCF-7 cells; assay: Human tumor cell growth inhibition (3H-thymidine incorporation), MCF-7/ADR; type: cell-based; settings: NCI/ADR-RES, inhibition of 3H-thymidine incorporation, 18-24 hrs + 4 hrs
Source text: (§1) MCF-7 a human breast tumor cell line and MCF-7/ADR an adriamycin resistant line of MCF-7 cells were obtained from the National Cancer Institute, Frederick, Md. CEM cells (ATCC accession number CCL 119) were obtained from the American Type Culture Collection, Rockville, Md. Human tumor cells are trypsinized (0.05% trypsin, GIBCO), counted with a hemacytometer and seeded at a concentration of 10,000 cells/well in a 96 well microtiter plate. After allowing cells to attach to the surface overnight, the culture medium is aspirated and replaced with 100 μl of fresh medium. Test agents are diluted to determine dose response at 2× final concentration and added in quadruplicate at 100 μl/well to bring the total volume of each well to 200 μl . The microtiter plate is then incubated at 37° C. 5% CO2 overnight (18-24 hrs) before ^3 H-thymidine is added at a concentration of 0.5 μCi/well in 50 μl culture medium. The plate is incubated again for 4 hrs under the same conditions as above. Supernatant is then aspirated and 50μl trypsin (0.05%, GIBCO) is added to each well. Cells are checked microscopically to determine detachment from surfaces, and plates are then harvested with a cell harvester (PHD, Cambridge Technology, Inc.) Filter papers corresponding to wells are placed in scintillation vials and counted to determine the amount of ^3 H-thymidine incorporated by the cells. […]

[2] = tested on: PMA-stimulated neutrophils; assay: Neutrophil superoxide anion (O2-) release assay; type: cell-based; settings: Homo sapiens, 0.5 h, 37° C., 30 min, cytochrome c reduction at 550 nm, read-out: IC50, PMA-stimulated O2- production (respiratory burst)
Procedure: Neutrophils are isolated form whole blood collected from human volunteers. All reagent materials are obtained from Sigma Chemical Company with the exception of isotonic saline (Travenol Laboratories, Inc., Deerfield, Ill.) and lymphocyte separation medium (Organon Teknika, Durham, N.C.).
Whole blood is drawn and mixed with sodium heparin (final conc. 10 units/ml) to prevent clotting. An equal volume of dextran (3.0%) in isotonic saline is added, mixed, and allowed to settle for 30 min to bind red blood cells (RBC). Supernatant is removed, underlayered with lymphocyte separation medium and centrifuged for 40 min at 400 ×g in a centrifuge (Beckman GPR, Norcross, Ga.). The pellet is alternately resuspended in 0.2% and 1.6% NaCl to lyse RBCs before washing with Hank's Balanced Salt Solution (HBSS). […]
The neutrophil cell concentration is adjusted to 2×10^6 cells/ml with HBSS before adding 0.8 ml cells to 12×75 mm polypropylene test tubes (Fisher Scientific). […] Optical density (OD) of cytochrome c is read in a spectrophotometer (Shimadzu) at 550 nm. […] Reducing cytochrome c increases its absorbance, and the change in OD of cytochrome c is proportional to the amount of O2^- produced by PMA stimulation. […] Inhibition is expressed as IC50 μM and is the amount of test compound that will inhibit fifty per cent of the PMA-stimulated respiratory outburst, i.e. O2^- production.

CEM cells = assay: Human tumor cell growth inhibition (3H-thymidine incorporation), CEM; type: cell-based; settings: CCRF-CEM, inhibition of 3H-thymidine incorporation, 18-24 hrs + 4 hrs
Source text: as §1

[3] = tested on: MCF-7 human breast tumor cell line; assay: Human tumor cell growth inhibition (3H-thymidine incorporation), MCF-7; type: cell-based; settings: MCF7, inhibition of 3H-thymidine incorporation, 18-24 hrs + 4 hrs
Source text: as §1

[4] = tested on: Proliferating keratinocytes (NHEK cells); assay: Human keratinocyte inhibition (3H-thymidine incorporation); type: cell-based; settings: second passage, inhibition of 3H-thymidine incorporation
Procedure: as §1, with “Human” for “MCF-7 a human breast tumor cell line and MCF-7/ADR an adriamycin resistant line of MCF-7 cells were obtained from the National Cancer Institute, Frederick, Md. CEM cells (ATCC accession number CCL 119) were obtained from the American Type Culture Collection, Rockville, Md. Human”, “Supernatant is then aspirated and 50μl trypsin (0.05%, GIBCO) is added to each well.” left out
Proliferating keratinocytes (NHEK cells purchased from Clonetics, Inc., San Diego, Calif.) in second passage were grown in Keratinocyte Growth Medium (KGM) (Clonetics, Inc.) Cells are trypsinized (0.025% trypsin, Clonetics), counted with a hemacytometer (Scientific Products), and seeded at a concentration of 2,500 cells/well in a 96 well microtiter plate. […]

Protein kinase C (PKC) = assay: Protein kinase C inhibition (histone H1 phosphorylation, 32P-ATP); type: biochemical; settings: histone H1 substrate; enzyme from rat brain; 20 μM ATP; pH 7.5; 10 min
Procedure: The protein kinase C (PKC) assay is designed to duplicated the in vivo conditions required for protein kinase C function. Therefore, pH, salt and cofactor concentrations are similar to physiologic levels. Histone Hl (lysine rich) is used in the assay as the phosphorylation acceptor protein because it is readily available and serves as a good substrate for protein kinase C. The enzyme is prepared from rat brain and is purified to apparent homogeneity as determined by a single band on silver stained SDS-polyacrylamide. Studies on the mechanism of regulation of protein kinase C by phospholipids, DAG and Ca^+2 have been hampered by the physical properties of the lipid cofactors. In the screening assay, phosphatidylserine (PS) and DAG are co-sonicated to form unilamellar and multilamellar vesicles. The concentration of lipids in the assay are suboptimal to maximize the detection potential of the assay for inhibitors. Potential inhibitor compounds are added to the assay in dimethylsulfoxide at three concentrations to give final inhibitor concentrations of 4.3, 43 and 218 μM, respectively. The assay is started with the addition of enzyme and stopped after 10 min by the addition of 25 % trichloroacetic acid (TCA) and 1.0 mg/ml bovine serum albumin (BSA). […] The amount of phosphorylation is determined by the radioactivity measured in a scintillation counter. […]

IC50 [1]	IC50 [2]	IC50 (CEM cells)	IC50 [3]	IC50 (Protein kinase C (PKC))	SMILES	IC50 [4]
17 µM	3.9 µM	2.7 µM	2.7 µM	43 µM	O=C1c2ccccc2C(=O)c2c(NCC(O)CNCc3ccccc3)ccc(NCC(O)CNCc3ccccc3)c21 (stereo not shown) [Compound 1b, 1,4-Bis-(3-Benzylamino-2-Hydroxypropylamino)-9, 10 anthracenedione. Hydrochloride salt]	4 µM
> 25 µM		5.6 µM	2.4 µM	199 µM	CCCNCC(O)CNc1ccc(NCC(O)CNCCC)c2c1C(=O)c1ccccc1C2=O (stereo not shown) [Compound 1a, 1,4-Bis-(3-Propylamino-2-Hydroxypropylamino)-9, 10 anthracenedione hydrochloride]	

Reference: patent US5141957A, “1,4-bis-(amino-hydroxyalkylamino)-anthraquinones for inhibiting protein kinase C” (Sphinx Pharmaceuticals Corporation, priority 1990, dated 1992)
